The text below walks through data of paper PMC6152134, “Synthesis and In Vitro Anticancer Activity of Novel Dehydroabietic Acid-Based Acylhydrazones” (Molecules : A Journal of Synthetic Chemistry and Natural …, 2017).

Data set [1] concerns BEL-7402 (liver) human carcinoma cell line. The experiment in a line: MTT cytotoxicity assay, BEL-7402 cells. The format is cell-based. As to conditions: Homo sapiens, 48 h exposure. Here is the method: (§1) Compounds 4a–x were evaluated for their cytotoxic activity in vitro against the human cancer cell lines, CNE-2, HepG2, HeLa, and BEL-7402 by using a 3-(4,5-dimethylthiazol-2-yl)-2,5-diphenyl tetrazolium bromide (MTT) colorimetric assay. Cisplatin was included in the experiments as a positive control, and the IC50 of DHA is also presented to compare the anticancer activities. The calculated IC50 values were reported differently according to the different cancer cells.
(§2) The CNE-2, HepG2, HeLa, and BEL-7402 cell lines used in this work were all purchased from the Institute of Biochemistry and Cell Biology, China Academy of Sciences. All were supplemented with 10% heat-inactivated fetal bovine serum in a humidified atmosphere of 5% CO2/95% air at 37 °C. In order to investigate the potential of compounds 4, cisplatin, a commercial classical anticancer drug was used as a reference drug. CNE-2, HepG2, HeLa, and BEL-7402 cells were seeded into 96-well microculture plates and allowed to adhere for 24 h, respectively. After cells were exposed to compounds at concentrations from 100 to 0.1 μM for 48 h, medium was aspirated and replenished with complete medium. IC50 values was evaluated by MTT tetrazolium dye assay. All the tests were repeated in at least three independent experiments. The IC50 values of the compounds were calculated using SPSS Version 10 software (IBM, New York, NY, USA), which defined the IC50 value as the concentration required to inhibit cell growth by 50%.
(In general: Tetrazolium dyes change colour on reduction, which living cells bring about.)

The subject of data set [2] is HepG2 (liver) human carcinoma cell line. Description: MTT cytotoxicity assay, HepG2 cells. The format is cell-based. As to conditions: Homo sapiens, HepG2, 48 h, 48 h exposure. The method, then: as §1, §2
For data set [3], the system named is HL-7702 normal human liver cell line. The experiment in a line: MTT cytotoxicity assay, HL-7702 normal liver cells. The format is cell-based. As to conditions: L02, normal human liver cell HL-7702.
Data set [4] deals with CNE-2 (nasopharynx) human carcinoma cell line. The experiment in a line: MTT cytotoxicity assay, CNE-2 cells. The format is cell-based. As to conditions: Homo sapiens, 48 h exposure. The method, then:
as §1, §2

The subject of data set [5] is HeLa (epithelial cervical) human carcinoma cell line. Description: MTT cytotoxicity assay, HeLa cells. The format is cell-based. The following applies: Homo sapiens, HeLa, 48 h, 48 h exposure. The method, then: as §1, §2
Data set [6] deals with human promyelocytic leukemic cells (HL-60). The arrangement: method as in PMID 20884091. The following applies: read-out: IC50 against HL-60; cited from earlier work.

One may read the IC50 as the concentration needed to halve the response being measured. As a reminder, the melting point is the temperature, or range, at which the solid turns liquid. In turn, `CC(C)c1ccc2c(c1)CCC1C(C)(C(=O)OCC(=O)NN=Cc3cc(F)cc(F)c3)CCCC21C` (centres unmarked) [4w] gave a melting point of 182.6 to 186.6 °C. Further, inhibition in data set [1] was half-maximal at 14.5 ± 0.22 µM (IC50). Half-maximal inhibition in data set [2] (IC50) was put at 12.07 ± 0.07 µM. Moreover, 66.1 ± 1.84 µM corresponded to half-maximal inhibition in data set [3] (IC50). For the same molecule, the IC50 in data set [4] amounted to 15.4 ± 0.21 µM. For the same molecule, half-maximal inhibition in data set [5] (IC50) was put at 2210 ± 40 nM.

With `O=C(N/N=C/c1ccccc1O)c1ccc(-c2ccc(F)cc2F)o1` [(E)-2-hydroxybenzaldehyde-5-(2,4-difluorophenyl)-2-furoyl hydrazone], in data set [6], the IC50 is 16.4 µM.

On to `COc1cccc2c1C(=O)c1c(O)c3c(c(O)c1C2=O)C[C@@](O)(C(=O)CO)C[C@@H]3O[C@H]1C[C@H](N)[C@H](O)[C@H](C)O1` [doxorubicin], for which the IC50 in data set [6] is 53.3 µM.
